Experimental data published in the CheMixHub ionic liquid set.
Values joined by “and” are separate entries in the source; they are usually repeats but may differ in a detail not shown here. Equal entries are not always repeated.

Test: xn = mol fraction of the nth substance listed

CCCCCC[n+]1ccc(C)cc1.[Br-] + CO/N=C(\C(=O)N[C@@H]1C(=O)N2C(C(=O)[O-])=C(CSc3nc(=O)c(=O)[n-]n3C)CS[C@H]12)c1csc(N)n1.[Na+].[Na+] + O
viscosity [mPa·s], 100 kPa
Conditions	288.15 K	293.15 K	298.15 K	303.15 K	308.15 K
x2 = 0, x1 = 0.0007045	1.172	1.028	0.913	0.817	0.738
x2 = 0, x1 = 0.001062	1.183	1.039	0.924	0.824	0.746
x2 = 0, x1 = 0.001422	1.195	1.05	0.934	0.834	0.753
x2 = 0.00034, x1 = 0.0007042	1.221	1.065	0.947	0.847	0.764
x2 = 0.0008651, x1 = 0.0007039	1.316	1.152	1.019	0.911	0.818
x2 = 0.0008655, x1 = 0.001061	1.322	1.159	1.029	0.917	0.826
x2 = 0.0008696, x1 = 0.001421	1.338	1.172	1.038	0.923	0.831
x2 = 0.001399, x1 = 0.0007035	1.412	1.233	1.092	0.974	0.875
x2 = 0.001401, x1 = 0.00142	1.432	1.255	1.116	0.991	0.888
x2 = 0.001409, x1 = 0.00106	1.418	1.244	1.1	0.98	0.881
x2 = 0.001955, x1 = 0.001419	1.545	1.353	1.2	1.062	0.951
x2 = 0.001966, x1 = 0.0007031	1.521	1.329	1.178	1.047	0.938
x2 = 0.00197, x1 = 0.00106	1.534	1.34	1.184	1.054	0.946
x2 = 0.00252, x1 = 0.0007027	1.641	1.432	1.264	1.125	1.01
x2 = 0.002559, x1 = 0.001419	1.685	1.47	1.302	1.143	1.03
x2 = 0.003119, x1 = 0.0007023	1.784	1.555	1.369	1.216	1.088
x2 = 0.003144, x1 = 0.001058	1.807	1.572	1.398	1.231	1.098
x2 = 0.003161, x1 = 0.001418	1.832	1.592	1.412	1.242	1.112
x2 = 0.003971, x1 = 0.0007017	2.011	1.751	1.539	1.363	1.216
x2 = 0.003978, x1 = 0.001417	2.065	1.788	1.585	1.387	1.243
x2 = 0.004835, x1 = 0.0007011	2.288	1.987	1.737	1.534	1.365
x2 = 0.004866, x1 = 0.001415	2.36	2.033	1.798	1.567	1.394
x2 = 0.00487, x1 = 0.001057	2.329	2.011	1.772	1.556	1.379
x2 = 0.005535, x1 = 0.0007006	2.55	2.197	1.919	1.69	1.499
x2 = 0.005568, x1 = 0.001056	2.58	2.228	1.956	1.716	1.513
x2 = 0.00558, x1 = 0.001414	2.61	2.251	1.984	1.726	1.534

CCCCCCCC[N+](C)(CCCCCCCC)CCCCCCCC.[Cl-] + COC(=O)OC
101 kPa
Conditions	electrical conductivity	viscosity [mPa·s]
298.15 K, x1 = 0.002	0.00012 S/m	–
298.15 K, x1 = 0.006	0.000267 S/m	–
298.15 K, x1 = 0.011	0.000601 S/m	–
298.15 K, x1 = 0.015	0.000944 S/m	–
298.15 K, x2 = 0	0.0026 S/m	2391
298.15 K, x2 = 0.67	0.015 S/m	58.07
298.15 K, x2 = 0.88	0.026 S/m	5.19
298.15 K, x2 = 0.98	0.00126 S/m	–
303.15 K, x1 = 0.002	0.000143 S/m	–
303.15 K, x1 = 0.006	0.000346 S/m	–
303.15 K, x1 = 0.011	0.00075 S/m	–
303.15 K, x1 = 0.015	0.00122 S/m	–
303.15 K, x2 = 0.55	0.0126 S/m	123.5
303.15 K, x2 = 0.98	0.00161 S/m	–
308.15 K, x1 = 0.002	0.000199 S/m	–
308.15 K, x1 = 0.006	0.00043 S/m	–
308.15 K, x2 = 0.76	0.0317 S/m	15.98
308.15 K, x2 = 0.95	0.0116 S/m	1.21
308.15 K, x2 = 0.98	0.0017 S/m and 0.00175 S/m	0.71
313.15 K, x1 = 0.006	0.0005 S/m	–
313.15 K, x1 = 0.011	0.00105 S/m	–
313.15 K, x2 = 0.55	0.0201 S/m	78.5
313.15 K, x2 = 0.92	0.0292 S/m	1.9
313.15 K, x2 = 0.98	0.00188 S/m and 0.0019 S/m	0.67
318.15 K, x1 = 0.002	0.000399 S/m	–
318.15 K, x1 = 0.006	0.00062 S/m	–
318.15 K, x1 = 0.011	0.00115 S/m	–
318.15 K, x2 = 0.98	0.00197 S/m	–

CCCCCCCCn1cc[n+](C)c1.F[B-](F)(F)F + COC(C)=O
298.15 K, 101 kPa
Conditions	viscosity [mPa·s]
x2 = 0.199	100
x2 = 0.5512	13.82
x2 = 0.801	2.29
x2 = 0.9515	0.63

CCCCCCCCCCCCCC[P+](CCCCCC)(CCCCCC)CCCCCC.O=S(=O)([N-]S(=O)(=O)C(F)(F)F)C(F)(F)F + COCCOCCOCCOCCOC
viscosity [mPa·s], 100 kPa
Conditions	278.15 K	283.15 K	288.15 K	293.15 K	298.15 K	303.15 K	313.15 K	323.15 K
x2 = 0.191	589	414	299	221	168	130	83	60
x2 = 0.366	281	207	157	121	96	77	52	–
x2 = 0.559	111	85	67	54	–	–	–	–
x2 = 0.664	64	51	–	–	–	–	–	–

O=C1CCCO1 + COCCn1cc[n+](C)c1.N#C[S-]
Conditions	viscosity [mPa·s]
313.15 K, 101 kPa, x2 = 0	1.38
